Consider five compounds from patent US20100275328A1, “METHOD OF SELECTIVELY PRODUCING MALE OR FEMALE STERILE PLANTS” (Syngenta Limited, priority 2003, published 2010).

The test system of data set [1] is Nicotiana tabacum var. Samsun. The data set is described as follows: Conditional female sterility of transgenic tobacco expressing mutant D-amino acid oxidase in female floral tissue. The class given is in vivo. Conditions: for seed production after treatment / pollen production after treatment: transgenic tobacco; for seed production after treatment: female floral promoter-DAMOX, foliar spray, root drench or bud application; for pollen production after treatment: same treatment conditions. As for the experimental part: Tobacco leaf discs are transformed with the recombinant binary vectors using methods similar to those described in Horsch et al (1985) Science, 227, 1229-1231. Many variations of the method may be used. The binary vector can be transformed into, for example, Agrobacterium tumefaciens strain LBA 4404 using the freeze thaw method of transformation. Tobacco transformation and whole plant regeneration is performed using Nicotiana tabacum var. Samsun according to protocols described by Draper et al (Plant Genetic Transformation, Blackwell Sci. Pub. 1989). Transformation events are selected on MS-media containing kanamycin or other suitable antibiotic. The presence of integrated transgenes is confirmed by PCR. Plants are regenerated and allowed to reach maturity and selfed on to produce seed. Northern and/or Western analysis is used to confirm tissue-specific expression of the D-amino acid oxidase genes. The selected plants are self-fertile but have the condition of conditional female sterility. Seeds of the T1 generation are planted out. Once plantlets have grown to a sufficient size they are tested by PCR for the presence of transgene. PCR positive plants are transferred to the greenhouse. These plants are fully fertile in the absence of exogenously applied proherbicide. A subset of these (putatively) conditionally sterile plants are treated with D-phosphinothricin or D-aspartate or D-glutamate in various amounts and at varying growth stages. Such treatments are carried out on the T1 plants confirmed as PCR positive for the D-amino acid oxidase gene, or, equally, such treatments are carried out directly on plants of the To generation (which are vegetatively cloned so that untreated clones of each event may be set aside for seed production). […] For example these amino acids are pure D enantiomers or, alternatively, are DL racemates. For example, they are applied as a foliar spray, prior to or during the early stages of flower formation, at rates usually between 0.25 and 20 kg/ha. Amino acids which may crystallise out of solution on the leaves following foliar application may be redissolved and remobilised for leaf uptake by further applications of water as a spray mist. Amino acids are, for example, also applied as a root drench and optionally, further applied as ˜50 ul of a 10-200 mM solution flooded directly into the buds of emerging florets. Pollen from the treated plants is collected and viability is tested. […] Controls include both transgenic and non-transgenic plants and are grown under identical conditions and under an identical regime of physical treatments except that treatment solutions are either water or an equivalent concentration of pure L-amino acid.
In one variant of the method, the amino acid applied is racemic DL phosphinothricin. In this case, the DNA construct used for transformation comprises, in addition to the DNA sequence encoding a D-amino acid oxidase under operable expression control of a tissue specific female floral promoter region such as ‘stig 1’, also a DNA sequence (EMBL: A02774) a […] under operable control of a promoter region such as the region 5′ of the translational start of the plastocyanin gene of the Pisum sativum plastocyanin gene (EMBL accession number X16082). For example, the construct is the same as depicted in FIG. 1.
The plastocyanin promoter region provides for preferential expression in the green tissues of the plant. […] Furthermore, in the absence of the heterologous D-amino acid oxidase being co-expressed in the floral tissues, the plastocyanin/PAT gene combination provides essentially complete reproductive tolerance with no significant loss of yield despite the PAT expression level being low or non-existent in many of the critical floral tissues when expressed under control of this promoter region. […]

A further data set deals with D-amino acid oxidase. The data set is described as follows: Control experiments: oxidation of pure L and pure D form of phosphinothricin by D-amino acid oxidase. The data set is classed as biochemical, Rhodotorula gracilis. To be noted: oxygen electrode. As for the experimental part: Approximately 7 g wet weight of cells is washed in water. The cells are resuspended in an equal volume of 50 mM/Mops/KOH buffer at pH 7.0 containing 2 mM EDTA, 2 mM DTT and 0.01 mM FAD. Cells are evenly suspended using a glass homogeniser and then disrupted using a one shot head in the Constant Systems (BudBrooke Rd, Warwick U.K.) Basic Z cell disrupter at 13500 psi. The crude extract is kept cold (−4° C.) centrifuged at 30,000 gav for 1 h and the pellet discarded. Some of the extract protein is run out on an SDS PAGE gel stained with Coomassie Blue and, through side by side comparison with similarly prepared extracts of cells containing only ‘empty’ pET vector it is estimated that 2-50% of the total soluble protein in the extract is D-amino acid oxidase. Some of the extract protein is exchanged into 50 mM Mops/KOH buffer at pH 7.0 containing 0.01 mM FAD. This is diluted with the same buffer in a standard oxygen electrode cell (calibrated at 25° C. between zero and a saturated concentration of oxygen). Optionally, the D-amino acid oxidase is further purified using ion-exchange, phenyl sepharose, fractional ammonium sulphate precipitation and gel filtration. […] Final amounts of protein in the cell vary up to 5 mg depending on the level of activity being measured. Rates of oxygen consumption (after substraction of any drift in the bases line) are measured.

For the next data set, the system named is wheat. The data set can be described thus: Reproductive tolerance of wheat containing PAT gene under barley plastocyanin promoter. The class given is in vivo. To be noted: wheat with PAT under barley plastocyanin promoter; rates of at least 2 kg/ha. From the text: The current invention provides a method of overcoming the problem of enabling the use of a cheap commercial herbicide, DL phosphinothricin, as both weed control and hybridising agent in the production of hybrid cereals and which method, furthermore, provides resultant hybrid cereals or rice in which DL phosphinothricin (or L-phosphinothricin) can be safely used for weed control without substantial loss of yield. As a yet further benefit, selfed seed from the F1 generation which may later arise as volunteers in subsequent crops will be easier to manage since they, themselves, will generally be sterile if sprayed with controlling amounts of DL phosphinothricin. The same holds for the progeny of pollen outcrossing from the F1 plants to weeds (e.g red rice) or other cereals. The current invention provides genes and enzymes that convert a non-phytotoxic component, D-phosphinothricin, of a commercial herbicide formulation DL phosphinothricin, into the active L form. The PAT gene which converts L-phosphinothricin to N-acetyl L-phosphinothricin is known already and is used commercially to provide tolerance to DL phosphinothricin in crops. […]

For the next data set, the system named is Tobacco plants. The data set is described as follows: Conditional male sterility of transgenic tobacco expressing mutant D-amino acid oxidase in male floral tissue. The data set is classed as in vivo. To be noted: rates between 250 g/ha and 5 kg/ha; TAP1 or TA29-DAMOX plus plastocyanin-PAT tobacco. How it is done: Tobacco plant material is transformed, via Agrobacterium, with vector and transgenic plants are regenerated in a similar manner to that described in the previous example. The plants produced are self-fertile but are conditionally male sterile. Seeds of the T1 generation are planted out into soil. Once plantlets have grown to a sufficient size they are tested by PCR for the presence of transgene. PCR positive plants are transferred to the greenhouse. These plants are fully fertile in the absence of exogenously applied proherbicide. A subset of these putatively conditionally sterile T1 plants, or, alternatively plantlets of T0 ‘events’ (direct regenerants from transformation) are treated with D-phosphinothricin or D-aspartate or D-glutamate in various amounts and at varying growth stages. Where To plants are treated they are vegetatively cloned so that untreated siblings of the events are set aside for seed production. […] For example these amino acids are pure D enantiomers or, alternatively, are DL racemates. For example, they are applied as a foliar spray, prior to or during the early stages of flower formation, at rates usually between 0.25 and 20 kg/ha. Amino acids which may crystallise out of solution on the leaves following foliar application may be redissolved and remobilised for leaf uptake by further applications of water as a spray mist. […]

Where [2] appears, read: rates between 250 g/ha and 5 kg/ha, stig1-DAMOX plus plastocyanin-PAT tobacco.

Regarding `N[C@H](CC(=O)O)C(=O)O` [D-aspartate], in data set [1], the “seed production after treatment” value was “relatively little or no seed” and the “pollen production after treatment” value was “near normal levels of viable pollen”.

For `N[C@H](CCC(=O)O)C(=O)O` [D-glutamate], in data set [1], the “seed production after treatment” value was “relatively little or no seed” and the “pollen production after treatment” value is recorded as “near normal levels of viable pollen”.

On to `CP(=O)(O)CC[C@@H](N)C(=O)O` [D-phosphinothricin], for which the “oxidation of pure enantiomer of phosphinothricin” value with D-amino acid oxidase was “up to twice the rate that the DL racemate is”. In data set [1], the “seed production after treatment” value is recorded as “relatively little or no seed” and the “pollen production after treatment” value is on record as “near normal levels of viable pollen”.

Regarding `CP(=O)(O)CCC(N)C(=O)O` (stereo not drawn) [DL phosphinothricin], the “reproductive tolerance to application” value in the data set with wheat is given as “substantially reproductively tolerant”. In addition, in the data set with Tobacco plants, the “male fertility of treated plants” value is “rendered conditionally male sterile” and the “visible damage of treated plants” value was “not visibly damaged”. The “reproductive tolerance to the herbicide” value in data set [1] (plastocyanin promoter/PAT gene, rates in excess of 2 kg/ha) was “substantially complete reproductive tolerance”. In addition, in data set [1] (setting [2]), the “female fertility of treated plants” value was “rendered conditionally female sterile” and the “visible damage of treated plants” value is given as “not visibly damaged”.

In the case of `CP(=O)(O)CC[C@H](N)C(=O)O` [pure L-form, L-phosphinothricin], the “oxidation of pure enantiomer of phosphinothricin” value with D-amino acid oxidase is reported as “not oxidised at detectable levels”.
